This is an account of results in ChEMBL document CHEMBL5727835, “Alkynyl dihydroquinoline sulfonamide compounds” (2020).

The structures appear in SMILES notation.

Assay [1] is described as follows: Nav 1.7 or Nav 1.5 IWQ In Vitro Assay: HEK 293 Cells stably transfected with either Nav 1.7 or Nav 1.5 were recorded in population patch-clamp mode with the IonWorks® Quattro automated electrophysiology system in accordance with the manufacturer's specifications (Molecular Devices, LLC, Sunnyvale, Calif.). Sodium channel currents were measured in response to a train of depolarizations that induced successively greater inactivation.Cells were held at −110 mV for three seconds (Nav 1.7) or half a second (Nav 1.5) from a holding voltage of −15 mV, then put through a series of 26 pulses of 150 msec duration to −20 mV at a frequency of 5 Hz. Cells were then left unclamped for a period of 3 to 8 minutes while a single concentration of test compound was added. Cells were then reclamped and put through the same voltage protocol. Current at the end of the 26th pulse to −20 mV was subtracted from the peak current evoked by the 26th pulse to −20 mV to correct for leak current. Percent block was calculated for each concentration in duplicate, and IC50 curves were fitted to percent block as a function of concentration. The conditions noted are these: HEK293.

Assay [2] can be described thus: Nav 1.7 In Vitro PX Assay: HEK 293 cells stably transfected with human Nav1.7 were recorded in whole cell voltage clamp mode with the PatchXpress automated electrophysiology system (Molecular Devices, LLC, Sunnyvale, Calif.). Compound effects were measured on a partially inactivated state of the sodium channel. Cells were clamped to a holding potential yielding 20 to 50% inactivation. To elicit sodium current, channels were activated by pulsing to −10 mV for 20 msec. This voltage protocol was repeated at a rate of 0.1 Hz throughout the experiment. A single concentration of test compound was applied to cells for a duration of 3 minutes. Peak sodium current was measured at the end of the compound addition period to determine percent inhibition. Three to five cells were tested per concentration, and IC50 curves were fitted to percent inhibition as a function of concentration. Conditions: HEK293.

For `COc1cc(C#C[C@@H]2C[C@@H]2C(F)(F)F)c(F)cc1-n1c(=O)ccc2cc(S(=O)(=O)Nc3ccon3)ccc21`, the IC50 in assay [1] was 5.5 nM; in assay [2], 139 nM.

Compound `COc1cc(C#C[C@H]2C[C@@H]2C(F)(F)F)c(F)cc1-n1c(=O)ccc2cc(S(=O)(=O)Nc3ccon3)ccc21` yielded a concentration for half-maximal inhibition (IC50) in assay [2] of 210 nM.

In the case of `COc1cc(C#CC2(OCC(F)(F)F)CCCC2)c(F)cc1-n1c(=O)ccc2cc(S(=O)(=O)Nc3ccon3)ccc21`, the IC50 in assay [1] is 9.73 nM; in assay [2], 33.8 nM.

Consider `COc1cc(C#CC2(C(F)(F)F)CC2)c(F)cc1-n1c(=O)ccc2cc(S(=O)(=O)Nc3ccon3)ccc21`, for which the IC50 in assay [1] was 8 nM.

`COc1cc(C#CC2CCCC2)c(F)cc1-n1c(=O)ccc2cc(S(=O)(=O)Nc3ccon3)ccc21`: the figures for the IC50 in assay [1] and in assay [2] were 4.53 nM and 17.3 nM, respectively.

Take `COc1cc(C#CC2CCCC2)c(Cl)cc1-n1c(=O)ccc2cc(S(=O)(=O)Nc3ccon3)ccc21`: the results for the 50% inhibitory concentration (IC50) in assay [1] and in assay [2] were 10 nM and 18.6 nM, respectively.

Broadly, the IC50 is the point on the concentration scale where inhibition reaches its midpoint.
